Reference: US20250066339A1, “HETEROCYCLE-SUBSTITUTED AROMATIC COMPOUND, METHOD FOR PREPARING SAME, HERBICIDAL COMPOSITION, AND USE THEREOF” (QINGDAO KINGAGROOT CHEMICAL COMPOUND CO., LTD., priority 2022, published 2025)

Assays:
Assay in all cases: Post-emergence test on weeds
Type in all cases: in vivo
Parameters in all cases: key: Level 10: completely dead; Level 9: growth control rate greater than or equal to 90% and less than 100%; Level 8: growth control rate greater than or equal to 80% and less than 90%; Level 7: growth control rate greater than or equal to 70% and less than 80%; Level 6: growth control rate greater than or equal to 60% and less than 70%; Level 5: growth control rate greater than or equal to 50% and less than 60%; Level 4: growth control rate greater than or equal to 40% and less than 50%; Level 3: growth control rate greater than or equal to 30% and less than 40%; Level 2: growth control rate greater than or equal to 20% and less than 30%; Level 1: growth control rate less than 20%; Level 0: no effect
Settings in all cases: 3 weeks after application, fresh weight control rate
Amaranthus retroflexus = test system: Amaranthus retroflexus
Text: (§1) The activity level criteria for plant damage (i.e., growth control rate) are as follows: • Level 10: completely dead; • Level 9: growth control rate greater than or equal to 90% and less than 100%; • Level 8: growth control rate greater than or equal to 80% and less than 90%; • Level 7: growth control rate greater than or equal to 70% and less than 80%; • Level 6: growth control rate greater than or equal to 60% and less than 70%; • Level 5: growth control rate greater than or equal to 50% and less than 60%; • Level 4: growth control rate greater than or equal to 40% and less than 50%; • Level 3: growth control rate greater than or equal to 30% and less than 40%; • Level 2: growth control rate greater than or equal to 20% and less than 30%; • Level 1: growth control rate less than 20%; • Level 0: no effect.
(§2) The above growth control rates are fresh weight control rates.
(§3) Monocotyledonous and dicotyledonous weed seeds (Descurainia sophia, Capsella bursa-pastoris, Abutilon theophrasti, Galium spurium, Stellaria media, Lithospermum arvense, Rorippa indica, Alopecurus aequalis, Alopecurus japonicus, Eleusine indica, Beckmannia syzigachne, Sclerochloa dura, Erigeron canadensis, Phleum paniculatum, Veronica polita, Bromus japonicus, Aegilops tauschii, Phalaris arundinacea, Amaranthus retroflexus, Chenopodium, Commelina communis, Cichorium endivia, Convolvulus arvensis, Cirsium arvense, Solanum nigrum, Acalypha australis, Digitaria sanguinalis, Echinochloa crus-galli, Setaria viridis, Setaria pumila, Leptochloa chinensis, Monochoria vaginalis, Sagittaria trifolia, Schoenoplectiella juncoides, Cyperus rotundus, Cyperus iria, Cyperus difformis, Fimbristylis, Portulaca oleracea, Xanthium sibiricum, Ipomoea nil, Eschenbachia japonica, etc.) and major crop seeds (wheat, maize, paddy rice, soybean, cotton, oilseed rape, millet, sorghum, potato, sesame, castor plant, etc.) were placed in plastic pots filled with soil and then covered with 0.5-2 cm of soil to allow them to grow in a favorable greenhouse environment. Two weeks after sowing, the test plants were treated at the stage of 2-3 leaves. The test compounds of the present invention were individually dissolved with acetone, then added with Tween® 80, with 1.5 L/ha of methyl oleate emulsifiable concentrate as a synergist, diluted into solutions of certain concentrations using certain amount of water, and sprayed to the plants using a spray tower. After drug application, the experimental results on weeds were collected after 3 weeks of cultivation in a greenhouse. The compounds were applied at 500, 250, 125, 60, 15, and 7.5 g a.i./ha in triplicate, and the results were averaged.

Echinochloa crus-galli = test system: Echinochloa crus-galli
Text: as §1, §2, §3

Digitaria sanguinalis = test system: Digitaria sanguinalis
Text: as §1, §2, §3

Veronica polita = test system: Veronica polita
Text: as §1, §2, §3

Abutilon theophrasti = test system: Abutilon theophrasti
Text: as §1, §2, §3

Setaria viridis = test system: Setaria viridis
Text: as §1, §2, §3

Cc1ccc(/C=N/OC(=O)C2(C)CC(c3cc(-c4ncc(C(F)(F)F)cc4Cl)c(F)cc3Cl)=NO2)s1 (stereo not drawn) [Compound 73]
10: activity level (growth control rate) Amaranthus retroflexus (Amaranthus retroflexus; 60 g a.i./ha) | activity level (growth control rate) Echinochloa crus-galli (Echinochloa crus-galli; 60 g a.i./ha) | activity level (growth control rate) Digitaria sanguinalis (Digitaria sanguinalis; 60 g a.i./ha) | activity level (growth control rate) Veronica polita (Veronica polita; 60 g a.i./ha) | activity level (growth control rate) Abutilon theophrasti (Abutilon theophrasti; 60 g a.i./ha) | activity level (growth control rate) Setaria viridis (Setaria viridis; 60 g a.i./ha)

CC1(C(=O)ON=C2CCCC2)CC(c2cc(-c3ncc(C(F)(F)F)cc3Cl)c(F)cc2Cl)=NO1 (stereo not drawn) [Compound 74]
10: activity level (growth control rate) Amaranthus retroflexus (Amaranthus retroflexus; 60 g a.i./ha) | activity level (growth control rate) Echinochloa crus-galli (Echinochloa crus-galli; 60 g a.i./ha) | activity level (growth control rate) Digitaria sanguinalis (Digitaria sanguinalis; 60 g a.i./ha) | activity level (growth control rate) Veronica polita (Veronica polita; 60 g a.i./ha) | activity level (growth control rate) Abutilon theophrasti (Abutilon theophrasti; 60 g a.i./ha) | activity level (growth control rate) Setaria viridis (Setaria viridis; 60 g a.i./ha)

CCOC(=O)CCC1(C)CC(c2cc(-c3ncc(C(F)(F)F)cc3Cl)c(F)cc2Cl)=NO1 (stereo not drawn) [Compound 76]
10: activity level (growth control rate) Amaranthus retroflexus (Amaranthus retroflexus; 15 g a.i./ha) | activity level (growth control rate) Echinochloa crus-galli (Echinochloa crus-galli; 15 g a.i./ha) | activity level (growth control rate) Digitaria sanguinalis (Digitaria sanguinalis; 15 g a.i./ha) | activity level (growth control rate) Veronica polita (Veronica polita; 15 g a.i./ha) | activity level (growth control rate) Abutilon theophrasti (Abutilon theophrasti; 15 g a.i./ha) | activity level (growth control rate) Setaria viridis (Setaria viridis; 15 g a.i./ha)

CCSC(=O)C1(C)CC(c2cc(-c3ncc(C(F)(F)F)cc3Cl)c(F)cc2Cl)=NO1 (stereo not drawn) [Compound 78]
10: activity level (growth control rate) Amaranthus retroflexus (Amaranthus retroflexus; 15 g a.i./ha) | activity level (growth control rate) Echinochloa crus-galli (Echinochloa crus-galli; 15 g a.i./ha) | activity level (growth control rate) Digitaria sanguinalis (Digitaria sanguinalis; 15 g a.i./ha) | activity level (growth control rate) Veronica polita (Veronica polita; 15 g a.i./ha) | activity level (growth control rate) Abutilon theophrasti (Abutilon theophrasti; 15 g a.i./ha) | activity level (growth control rate) Setaria viridis (Setaria viridis; 15 g a.i./ha)

CCOC(=O)C1(C)CC(c2cc(-c3ncc(OC)cc3Cl)c(F)cc2Cl)=NO1 (stereo not drawn) [Compound 102]
10: activity level (growth control rate) Amaranthus retroflexus (Amaranthus retroflexus; 60 g a.i./ha) | activity level (growth control rate) Echinochloa crus-galli (Echinochloa crus-galli; 60 g a.i./ha) | activity level (growth control rate) Digitaria sanguinalis (Digitaria sanguinalis; 60 g a.i./ha) | activity level (growth control rate) Veronica polita (Veronica polita; 60 g a.i./ha) | activity level (growth control rate) Abutilon theophrasti (Abutilon theophrasti; 60 g a.i./ha) | activity level (growth control rate) Setaria viridis (Setaria viridis; 60 g a.i./ha)

C=C(C)c1cnc(-c2cc(C3=NOC(C)(C(=O)OCSC)C3)c(Cl)cc2F)c(Cl)c1 (stereo not drawn) [Compound 104]
10: activity level (growth control rate) Amaranthus retroflexus (Amaranthus retroflexus; 60 g a.i./ha) | activity level (growth control rate) Echinochloa crus-galli (Echinochloa crus-galli; 60 g a.i./ha) | activity level (growth control rate) Digitaria sanguinalis (Digitaria sanguinalis; 60 g a.i./ha) | activity level (growth control rate) Veronica polita (Veronica polita; 60 g a.i./ha) | activity level (growth control rate) Abutilon theophrasti (Abutilon theophrasti; 60 g a.i./ha) | activity level (growth control rate) Setaria viridis (Setaria viridis; 60 g a.i./ha)

CSCCOC(=O)C1CC(c2cc(-c3ncc(C(F)(F)F)cc3Cl)c(F)cc2Cl)=NO1 (stereo not drawn) [Compound 105]
10: activity level (growth control rate) Amaranthus retroflexus (Amaranthus retroflexus; 60 g a.i./ha) | activity level (growth control rate) Echinochloa crus-galli (Echinochloa crus-galli; 60 g a.i./ha) | activity level (growth control rate) Digitaria sanguinalis (Digitaria sanguinalis; 60 g a.i./ha) | activity level (growth control rate) Veronica polita (Veronica polita; 60 g a.i./ha) | activity level (growth control rate) Abutilon theophrasti (Abutilon theophrasti; 60 g a.i./ha) | activity level (growth control rate) Setaria viridis (Setaria viridis; 60 g a.i./ha)

C=C(C)c1cnc(-c2cc(C3=NOC(C)(C(=O)ON=C(C)C)C3)c(Cl)cc2F)c(Cl)c1 (stereo not drawn) [Compound 113]
10: activity level (growth control rate) Amaranthus retroflexus (Amaranthus retroflexus; 60 g a.i./ha) | activity level (growth control rate) Echinochloa crus-galli (Echinochloa crus-galli; 60 g a.i./ha) | activity level (growth control rate) Digitaria sanguinalis (Digitaria sanguinalis; 60 g a.i./ha) | activity level (growth control rate) Veronica polita (Veronica polita; 60 g a.i./ha) | activity level (growth control rate) Abutilon theophrasti (Abutilon theophrasti; 60 g a.i./ha) | activity level (growth control rate) Setaria viridis (Setaria viridis; 60 g a.i./ha)

CC(C)=NOC(=O)C1(C2CC2)CC(c2cc(-c3ncc(C(F)(F)F)cc3Cl)c(F)cc2Cl)=NO1 (stereo not drawn) [Compound 129]
10: activity level (growth control rate) Amaranthus retroflexus (Amaranthus retroflexus; 60 g a.i./ha) | activity level (growth control rate) Echinochloa crus-galli (Echinochloa crus-galli; 60 g a.i./ha) | activity level (growth control rate) Digitaria sanguinalis (Digitaria sanguinalis; 60 g a.i./ha) | activity level (growth control rate) Veronica polita (Veronica polita; 60 g a.i./ha) | activity level (growth control rate) Abutilon theophrasti (Abutilon theophrasti; 60 g a.i./ha) | activity level (growth control rate) Setaria viridis (Setaria viridis; 60 g a.i./ha)
